Converted amounts (≈) assume the structure as drawn.
Key:
[1] = Cytotoxicity against Homo sapiens (human) HCT cells assessed as cell viability at 25 ug/ml after 48 hr by MTT assay relative to control; type: functional; conditions: read-out: Activity
MCF7 [2] = assay: Cytotoxicity against Homo sapiens (human) MCF7 cells assessed as cell viability at 3.125 ug/ml after 48 hr by MTT assay relative to control; type: functional; conditions: MCF7, 48 h, read-out: Activity
[3] = Cytotoxicity against Homo sapiens (human) HCT cells assessed as cell viability at 12.5 ug/ml after 48 hr by MTT assay relative to control; type: functional; conditions: read-out: Activity
MCF7 [4] = assay: Cytotoxicity against Homo sapiens (human) MCF7 cells assessed as cell viability at 6.25 ug/ml after 48 hr by MTT assay relative to control; type: functional; conditions: MCF7, 48 h, read-out: Activity
HepG2 [5] = assay: Cytotoxicity against Homo sapiens (human) HepG2 cells assessed as cell viability at 12.5 ug/ml after 48 hr by MTT assay relative to control; type: functional; conditions: HepG2, 48 h, read-out: Activity
[6] = Cytotoxicity against Homo sapiens (human) HCT cells assessed as cell viability at 3.125 ug/ml after 48 hr by MTT assay relative to control; type: functional; conditions: read-out: Activity
HepG2 [7] = assay: Cytotoxicity against Homo sapiens (human) HepG2 cells assessed as cell viability at 6.25 ug/ml after 48 hr by MTT assay relative to control; type: functional; conditions: HepG2, 48 h, read-out: Activity
HepG2 [8] = assay: Cytotoxicity against Homo sapiens (human) HepG2 cells assessed as cell viability at 50 ug/ml after 48 hr by MTT assay relative to control; type: functional; conditions: HepG2, 48 h, read-out: Activity
MCF7 [9] = assay: Cytotoxicity against Homo sapiens (human) MCF7 cells assessed as cell viability at 1.56 ug/ml after 48 hr by MTT assay relative to control; type: functional; conditions: MCF7, 48 h, read-out: Activity
[10] = Cytotoxicity against Homo sapiens (human) HCT cells assessed as cell viability at 6.25 ug/ml after 48 hr by MTT assay relative to control; type: functional; conditions: read-out: Activity
MCF7 [11] = assay: Cytotoxicity against Homo sapiens (human) MCF7 cells assessed as cell viability at 50 ug/ml after 48 hr by MTT assay relative to control; type: functional; conditions: MCF7, 48 h, read-out: Activity
HepG2 [12] = assay: Cytotoxicity against Homo sapiens (human) HepG2 cells assessed as cell viability at 3.125 ug/ml after 48 hr by MTT assay relative to control; type: functional; conditions: HepG2, 48 h, read-out: Activity
HepG2 [13] = assay: Cytotoxicity against Homo sapiens (human) HepG2 cells assessed as cell viability at 1.56 ug/ml after 48 hr by MTT assay relative to control; type: functional; conditions: HepG2, 48 h, read-out: Activity
MCF7 [14] = assay: Cytotoxicity against Homo sapiens (human) MCF7 cells after 48 hr by MTT assay; type: functional, cell-based; conditions: MCF7, 48 h
HepG2 [15] = assay: Cytotoxicity against Homo sapiens (human) HepG2 cells assessed as cell viability at 25 ug/ml after 48 hr by MTT assay relative to control; type: functional; conditions: HepG2, 48 h, read-out: Activity
[16] = Cytotoxicity against Homo sapiens (human) HCT cells after 48 hr by MTT assay; type: functional, cell-based
HepG2 [17] = assay: Cytotoxicity against Homo sapiens (human) HepG2 cells after 48 hr by MTT assay; type: functional, cell-based; conditions: Homo sapiens, HepG2, 48 h; read-out: IC50
[18] = Cytotoxicity against Homo sapiens (human) HCT cells assessed as cell viability at 1.56 ug/ml after 48 hr by MTT assay relative to control; type: functional; conditions: read-out: Activity
MCF7 [19] = assay: Cytotoxicity against Homo sapiens (human) MCF7 cells assessed as cell viability at 12.5 ug/ml after 48 hr by MTT assay relative to control; type: functional; conditions: MCF7, 48 h, read-out: Activity
MCF7 [20] = assay: Cytotoxicity against Homo sapiens (human) MCF7 cells assessed as cell viability at 25 ug/ml after 48 hr by MTT assay relative to control; type: functional; conditions: MCF7, 48 h, read-out: Activity
[21] = Cytotoxicity against Homo sapiens (human) HCT cells assessed as cell viability at 50 ug/ml after 48 hr by MTT assay relative to control; type: functional; conditions: read-out: Activity

SMILES | viability at 25 µg/mL [1] | viability at 3.125 µg/mL (MCF7 [2]) | viability at 12.5 µg/mL [3] | viability at 6.25 µg/mL (MCF7 [4]) | viability at 12.5 µg/mL (HepG2 [5]) | viability at 3.125 µg/mL [6] | viability at 6.25 µg/mL (HepG2 [7]) | viability at 50 µg/mL (HepG2 [8]) | viability at 1.56 µg/mL (MCF7 [9]) | viability at 6.25 µg/mL [10] | viability at 50 µg/mL (MCF7 [11]) | viability at 3.125 µg/mL (HepG2 [12]) | viability at 1.56 µg/mL (HepG2 [13]) | IC50 (MCF7 [14]) | viability at 25 µg/mL (HepG2 [15]) | IC50 [16] | viability at 1.56 µg/mL [18] | viability at 12.5 µg/mL (MCF7 [19]) | viability at 25 µg/mL (MCF7 [20]) | viability at 50 µg/mL [21] | also measured
N#CC1=C(/N=C/NN)Oc2c(ccc3cccnc23)C1c1ccc(Cl)cc1 (stereo unspecified) | 29.2% | 67% | 36% | 55% | 36% | 65.2% | 60.9% | 24.9% | 78.8% | 55.6% | 21.4% | 78.4% | 88.2% | 8.4 µg/mL (≈ 22.4 µM) | 29.1% | 7.4 µg/mL (≈ 19.7 µM) | 81.4% | 45% | 35.2% | 24.8% | IC50 (HepG2 [17]): 8.7 µg/mL (≈ 23.1 µM)
CN/C=N/C1=C(C#N)C(c2ccc(Cl)cc2)c2ccc3cccnc3c2O1 (stereo unspecified) | 13.6% | 65% | 22.2% | 50.1% | 30.4% | 41.4% | 39% | 9.28% | 76.8% | 29.4% | 16.8% | 45.7% | 52.8% | 6.3 µg/mL (≈ 16.8 µM) | 17.9% | 2.3 µg/mL (≈ 6.14 µM) | 58.2% | 29.2% | 21.4% | 11.1% | IC50 (HepG2 [17]): 1.9 µg/mL (≈ 5.07 µM)
N#CC1=C(/N=C/N)Oc2c(ccc3cccnc23)C1c1ccc(Cl)cc1 (stereo unspecified) | 21.8% | 79.7% | 26.3% | 67.4% | 63.9% | 80.2% | 76.7% | 35.8% | 91.3% | 52.4% | 23.1% | 87.4% | 96.6% | 10.5 µg/mL (≈ 29.1 µM) | 43.4% | 6.8 µg/mL (≈ 18.8 µM) | 94.9% | 43.6% | 37.5% | 18.7% | IC50 (HepG2 [17]): 23.6 µg/mL (≈ 65.4 µM)
Cc1ccc2ccc3c(c2n1)OC(/N=C/N)=C(C#N)C3c1ccc(Cl)cc1 (stereo unspecified) | 44.2% | 96.5% | 65.2% | 89.3% | 57.7% | 82.2% | 68% | 41.2% | 98.4% | 70.7% | 63.6% | 76.7% | 80.5% | > 50 µg/mL | 53.8% | 21.7 µg/mL (≈ 57.9 µM) | 91.6% | 81.5% | 74.2% | 35.9% | IC50 (HepG2 [17]): 32.9 µg/mL (≈ 87.8 µM)
Cc1ccc2ccc3c(c2n1)OC(/N=C/N)=C(C#N)C3c1ccc(Br)cc1 (stereo unspecified) | 34.1% | 97.3% | 42.9% | 89.8% | 65.5% | 65% | 81.2% | 52.3% | 100% | 49.8% | 56.2% | 89.3% | 98.8% | > 50 µg/mL | 60.7% | 6.2 µg/mL (≈ 14.8 µM) | 86.9% | 81.2% | 69.6% | 24.8% | IC50 (HepG2 [17]): > 50 µg/mL
CN(C)/C=N/C1=C(C#N)C(c2ccc(Cl)cc2)c2ccc3cccnc3c2O1 (stereo unspecified) | 71.3% | 92% | 77.7% | 83.5% | 85.6% | 98.5% | 93% | 48.1% | 98.7% | 88.1% | 37.7% | 98.3% | 100% | 29.3 µg/mL (≈ 75.3 µM) | 77.8% | 49.4 µg/mL (≈ 127 µM) | 100% | 75.6% | 58% | 49.5% | IC50 (HepG2 [17]): 47.9 µg/mL (≈ 123 µM)
Cc1ccc2ccc3c(c2n1)OC(/N=C/N(C)C)=C(C#N)C3c1ccc(Cl)cc1 (stereo unspecified) | 53.5% | 87.2% | 69.7% | 76.9% | 94.7% | 78.7% | 97.8% | 68.2% | 97% | 74.2% | 35% | 100% | 100% | 24.4 µg/mL (≈ 60.6 µM) | 81.5% | 28.2 µg/mL (≈ 70 µM) | 82% | 68.2% | 49.6% | 30.5% | IC50 (HepG2 [17]): > 50 µg/mL
CC[C@]1(O)C[C@@H]2CN(CCc3c([nH]c4ccccc34)[C@@](C(=O)OC)(c3cc4c(cc3OC)N(C)[C@H]3[C@@](O)(C(=O)OC)[C@H](OC(C)=O)[C@]5(CC)C=CCN6CC[C@]43[C@@H]65)C2)C1 [VINBLASTINE] | 21.7% | 60.4% | 28.2% | 48.8% | 24.2% | 47.5% | 45.1% | 14.4% | 76.2% | 38.1% | 7.82% | 55% | 72.1% | – | 16.1% | 2.6 µg/mL (≈ 3.21 µM) | 53.4% | 29.6% | 15.2% | 16.3% | –

From ChEMBL document CHEMBL3045319, “Synthesis, antitumor activity, and structureactivity relationship of some 4H-pyrano[3,2-h]quinoline and 7H-pyrimido[4,5:6,5]pyrano[3,2-h]quinoline derivatives” (Med Chem Res, 2013)
